Measured values: US7705004B2, “Protein kinase inhibitors” (Portola Pharmaceuticals, Inc., priority 2007, dated 2010)

Experiments:
Format in all cases: cell-based
[1] = system: human platelet-rich plasma (PRP); assay: Convulxin-induced aggregation assay (cuvette light transmittance); conditions: 125-250 ng/mL Convulxin, read-out: IC50, inhibition of convulxin-induced aggregation of platelet rich plasma
Protocol: For preparation of human platelet-rich plasma (PRP) for aggregation assays, human venous blood was collected from healthy, drug-free volunteers into 0.38% sodium citrate (0.013 M, pH 7.0 final). PRP was prepared by centrifugation of whole blood at 160×g for 20 minutes at room temperature. The PRP layer was removed, transferred to a new tube, and the platelet count was adjusted, if necessary, to achieve a platelet concentration of ˜3×10^8 platelets/mL using platelet-poor plasma (PPP). PPP was prepared by centrifugation of the remaining blood sample (after removal of PRP) for 20 minutes at 800×g. This preparation of PRP may be subsequently used for aggregation assays in either a 96-well plate or standard cuvette aggregometry.
Inhibition of Convulxin-induced aggregation was determined by cuvette light transmittance aggregation assays. Serial dilutions (1:2) of test compounds were prepared in 30% DMSO in a 96-well V-bottom plate (final DMSO concentration in the cuvette was 0.3%). The test compound (5 μl of serial dilutions in DMSO) was preincubated with PRP for 20 minutes prior to initiation of the aggregation reactions, which were performed in a ChronoLog aggregometer by addition of agonist (125-250 ng/mL Convulxin) to 495 μL of PRP at 37° C. The aggregation reaction was recorded for 4 minutes, and the maximum extent of aggregation was determined by the difference in extent of aggregation at baseline, compared to the maximum aggregation that occurred during the 4 minute period of the assay. Inhibition of aggregation was calculated as the maximum aggregation observed in the presence of inhibitor, compared to that in the absence of inhibitor. IC50s were derived by non-linear regression analysis.

[2] = system: IL-4 induced STAT-6 phosphorylation (JAK1/JAK3) in Ramos B-cells; assay: JAK3/STAT6 cellular assay: IL-4 induced STAT-6 phosphorylation, intracellular flow cytometry; conditions: Homo sapiens, Ramos B-cells pre-treated 1 hour, IL-4 10 minutes
Description: Similar types of assays can be used to assess JAK kinase inhibitory activity and to determine the degree of selectivity of the particular compound as compared to Syk kinase. One means of assaying for such inhibition is detection of the effect of the compounds of the present invention on the upregulation of downstream gene products. In the Ramos/IL4 assay, B-cells are stimulated with the cytokine Interleukin-4 (IL-4) leading to the activation of the JAK/Stat pathway through phosphorylation of the JAK family kinases, JAK1 and JAK3, which in turn phosphorylate and activate the transcription factor Stat-6. […] To study the effect of inhibitors (e.g., the 2,4-substituted pyrimindinediamine compounds described herein) on the JAK1 and JAK3 kinases, human Ramos B-cells are stimulated with human IL-4. 10′ post-stimulation, cells are subjected to intracellular flow cytometry to measure the extent of STAT-6 phosphorylation. 20 to 24 hours post-stimulation, cells are stained for upregulation of CD23 and analyzed using flow cytometry.
Stimulation of Ramos B-cells by IL-4 leads to signaling through JAK1/JAK3 resulting in phosphorylation of STAT6 (signal transducers and activators of transcription). The effect of compounds on inhibition of JAK3 and/or JAK1 can be assessed by measuring the amount of phosphorylated STAT6. This may be performed by Western blotting and/or intracellular flow cytometry using a specific phospho-STAT6 antibody. Data describing compound inhibition of IL-4 induced STAT-6 phosphorylation (measured by intracellular flow cytometry) for Compound 1-1 (Example 1) is presented in the following table.
For the data in the above Table, Ramos B-cells were pre-treated for 1 hour with increasing concentrations of Compound 1-1, as indicated prior to addition of IL-4. Cells were incubated with IL-4 for 10 minutes, and then subjected to intracellular flow cytometry to measure the percent inhibition of IL-4 induced Stat-6, as shown.

[3] = system: human washed platelets; assay: Inhibition of Convulxin-mediated platelet calcium mobilization in vitro; conditions: 125 ng/mL Convulxin
Protocol: Inhibition of Convulxin-induced calcium mobilization was determined in human washed platelets using the FLIPR Calcium 3 Assay Kit (Molecular Devices, Sunnyvale, Calif.). For preparation of washed platelets, human venous blood was collected from healthy, drug-free volunteers into ACD (85 mM sodium citrate, 111 mM glucose, 71.4 mM citric acid) containing PGI2 (1.25 mL ACD containing 0.2 μM PGI2 final; PGI2 from Sigma, St. Louis, Mo.). Platelet-rich plasma (PRP) was prepared by centrifugation at 160×g for 20 minutes at room temperature. Washed platelets were prepared by centrifuging PRP for 10 minutes at 730×g and resuspending the platelet pellet in CGS (13 mM sodium citrate, 30 mM glucose, 120 mM NaCl; 2 mL CGS/10 mL original blood volume). The wash in CGS was repeated a second time, the platelets were collected by centrifugation at 730 g for 10 minutes and resuspended at a concentration of 3×10^8 platelets/mL in Hepes-Tyrode's buffer (10 mM Hepes, 138 mM NaCl, 5.5 mM glucose, 2.9 mM KCl, 12 mM NaHCO3, pH 7.4). This platelet suspension was allowed to rest for 45 minutes at room temperature before use in calcium mobilization assays.
For 96-well plate calcium-mobilization experiments, equal volumes of 3×10^8 washed platelets/mL were incubated with equal volumes of Calcium-3 Assay Reagent A resuspended in 1× Hank's Balanced Salt Solution, pH 7.4, 20 mM Hepes buffer. The total reaction volume of 0.2 mL/well included 1.5×10^8/mL washed platelet/Calcium-3 Assay reagent A mix, 10 μM Eptifibatide (Millennium Pharmaceuticals Inc, Cambridge, Mass.) and serial dilutions (1:3) of test compounds in 0.75% DMSO. DMSO alone was added to 1 well of each 8 set to allow for a maximal calcium-mobilization reading. After a 20 minute preincubation at room temperature, the 96-well microplate reader was loaded into the FlexStation (Molecular Devices, Sunnyvale, Calif.). The FlexStation experimental conditions for measuring calcium mobilization were set up using SOFTMax Pro. The settings used were as follows: Fluorescence parameters-assay mode: flex, excitation 485 nm, 525 nM with a cut-off of 515 nM; Parameters—PMT sensitivity-6, pipette height 230 μl, read time 2 minutes and 40 seconds, read intervals 2 seconds, temperature-23-25° C. After 18 seconds of baseline reading, calcium mobilization was initiated by the addition of Convulxin to a final concentration of 125 ng/mL. Inhibition of calcium mobilization was calculated as the maximum response observed in the presence of inhibitor, compared to that in the absence of inhibitor. IC50s were then derived by non-linear regression analysis.

## CC(=O)N1CCN(c2ccc(Nc3nc(Nc4ccc5cn[nH]c5c4)c4cc[nH]c4n3)cc2)CC1 [Compound 1-1, 1-(4-(4-(4-(1H-indazol-6-ylamino)-7H-pyrrolo[2,3-d]pyrimidin-2-ylamino)phenyl)piperazin-1-yl)ethanone]
[1]
  IC50: ≤ 50 µM
[2]; 0.05 μM compound
  inhibition at 0.05 µM: 0%
[2]; 0.125 μM compound
  inhibition at 0.125 µM: 6%
[2]; 0.25 μM compound
  inhibition at 0.25 µM: 22%
[2]; 0.5 μM compound
  inhibition at 0.5 µM: 33%
[2]; 1 μM compound
  inhibition at 1 µM: 41%
[2]; 2 μM compound
  inhibition at 2 µM: 49%
[3]
  IC50: < 1 µM
